Measured values: ChEMBL document CHEMBL1134961, “[(125)I]-N-[(3-azido-5-iodo)benzyl]dantrolene and [(125)I]-N-[[3-iodo-5-(3-trifluoromethyl-3H-diazirin-3-yl)]benzyl]dantrolene: photoaffinity probes specific for the physiological Ca(2+) release from sarcoplasmic reticulum of skeletal muscle” (Bioorg Med Chem Lett, 2002)
Calls of active or inactive are those of the source. The calls are words filed in the database; no cut-off is given here.

Target: Ryanodine receptor 1 (Mus musculus) (UniProt E9PZQ0)
Sequence (E9PZQ0 whole entry): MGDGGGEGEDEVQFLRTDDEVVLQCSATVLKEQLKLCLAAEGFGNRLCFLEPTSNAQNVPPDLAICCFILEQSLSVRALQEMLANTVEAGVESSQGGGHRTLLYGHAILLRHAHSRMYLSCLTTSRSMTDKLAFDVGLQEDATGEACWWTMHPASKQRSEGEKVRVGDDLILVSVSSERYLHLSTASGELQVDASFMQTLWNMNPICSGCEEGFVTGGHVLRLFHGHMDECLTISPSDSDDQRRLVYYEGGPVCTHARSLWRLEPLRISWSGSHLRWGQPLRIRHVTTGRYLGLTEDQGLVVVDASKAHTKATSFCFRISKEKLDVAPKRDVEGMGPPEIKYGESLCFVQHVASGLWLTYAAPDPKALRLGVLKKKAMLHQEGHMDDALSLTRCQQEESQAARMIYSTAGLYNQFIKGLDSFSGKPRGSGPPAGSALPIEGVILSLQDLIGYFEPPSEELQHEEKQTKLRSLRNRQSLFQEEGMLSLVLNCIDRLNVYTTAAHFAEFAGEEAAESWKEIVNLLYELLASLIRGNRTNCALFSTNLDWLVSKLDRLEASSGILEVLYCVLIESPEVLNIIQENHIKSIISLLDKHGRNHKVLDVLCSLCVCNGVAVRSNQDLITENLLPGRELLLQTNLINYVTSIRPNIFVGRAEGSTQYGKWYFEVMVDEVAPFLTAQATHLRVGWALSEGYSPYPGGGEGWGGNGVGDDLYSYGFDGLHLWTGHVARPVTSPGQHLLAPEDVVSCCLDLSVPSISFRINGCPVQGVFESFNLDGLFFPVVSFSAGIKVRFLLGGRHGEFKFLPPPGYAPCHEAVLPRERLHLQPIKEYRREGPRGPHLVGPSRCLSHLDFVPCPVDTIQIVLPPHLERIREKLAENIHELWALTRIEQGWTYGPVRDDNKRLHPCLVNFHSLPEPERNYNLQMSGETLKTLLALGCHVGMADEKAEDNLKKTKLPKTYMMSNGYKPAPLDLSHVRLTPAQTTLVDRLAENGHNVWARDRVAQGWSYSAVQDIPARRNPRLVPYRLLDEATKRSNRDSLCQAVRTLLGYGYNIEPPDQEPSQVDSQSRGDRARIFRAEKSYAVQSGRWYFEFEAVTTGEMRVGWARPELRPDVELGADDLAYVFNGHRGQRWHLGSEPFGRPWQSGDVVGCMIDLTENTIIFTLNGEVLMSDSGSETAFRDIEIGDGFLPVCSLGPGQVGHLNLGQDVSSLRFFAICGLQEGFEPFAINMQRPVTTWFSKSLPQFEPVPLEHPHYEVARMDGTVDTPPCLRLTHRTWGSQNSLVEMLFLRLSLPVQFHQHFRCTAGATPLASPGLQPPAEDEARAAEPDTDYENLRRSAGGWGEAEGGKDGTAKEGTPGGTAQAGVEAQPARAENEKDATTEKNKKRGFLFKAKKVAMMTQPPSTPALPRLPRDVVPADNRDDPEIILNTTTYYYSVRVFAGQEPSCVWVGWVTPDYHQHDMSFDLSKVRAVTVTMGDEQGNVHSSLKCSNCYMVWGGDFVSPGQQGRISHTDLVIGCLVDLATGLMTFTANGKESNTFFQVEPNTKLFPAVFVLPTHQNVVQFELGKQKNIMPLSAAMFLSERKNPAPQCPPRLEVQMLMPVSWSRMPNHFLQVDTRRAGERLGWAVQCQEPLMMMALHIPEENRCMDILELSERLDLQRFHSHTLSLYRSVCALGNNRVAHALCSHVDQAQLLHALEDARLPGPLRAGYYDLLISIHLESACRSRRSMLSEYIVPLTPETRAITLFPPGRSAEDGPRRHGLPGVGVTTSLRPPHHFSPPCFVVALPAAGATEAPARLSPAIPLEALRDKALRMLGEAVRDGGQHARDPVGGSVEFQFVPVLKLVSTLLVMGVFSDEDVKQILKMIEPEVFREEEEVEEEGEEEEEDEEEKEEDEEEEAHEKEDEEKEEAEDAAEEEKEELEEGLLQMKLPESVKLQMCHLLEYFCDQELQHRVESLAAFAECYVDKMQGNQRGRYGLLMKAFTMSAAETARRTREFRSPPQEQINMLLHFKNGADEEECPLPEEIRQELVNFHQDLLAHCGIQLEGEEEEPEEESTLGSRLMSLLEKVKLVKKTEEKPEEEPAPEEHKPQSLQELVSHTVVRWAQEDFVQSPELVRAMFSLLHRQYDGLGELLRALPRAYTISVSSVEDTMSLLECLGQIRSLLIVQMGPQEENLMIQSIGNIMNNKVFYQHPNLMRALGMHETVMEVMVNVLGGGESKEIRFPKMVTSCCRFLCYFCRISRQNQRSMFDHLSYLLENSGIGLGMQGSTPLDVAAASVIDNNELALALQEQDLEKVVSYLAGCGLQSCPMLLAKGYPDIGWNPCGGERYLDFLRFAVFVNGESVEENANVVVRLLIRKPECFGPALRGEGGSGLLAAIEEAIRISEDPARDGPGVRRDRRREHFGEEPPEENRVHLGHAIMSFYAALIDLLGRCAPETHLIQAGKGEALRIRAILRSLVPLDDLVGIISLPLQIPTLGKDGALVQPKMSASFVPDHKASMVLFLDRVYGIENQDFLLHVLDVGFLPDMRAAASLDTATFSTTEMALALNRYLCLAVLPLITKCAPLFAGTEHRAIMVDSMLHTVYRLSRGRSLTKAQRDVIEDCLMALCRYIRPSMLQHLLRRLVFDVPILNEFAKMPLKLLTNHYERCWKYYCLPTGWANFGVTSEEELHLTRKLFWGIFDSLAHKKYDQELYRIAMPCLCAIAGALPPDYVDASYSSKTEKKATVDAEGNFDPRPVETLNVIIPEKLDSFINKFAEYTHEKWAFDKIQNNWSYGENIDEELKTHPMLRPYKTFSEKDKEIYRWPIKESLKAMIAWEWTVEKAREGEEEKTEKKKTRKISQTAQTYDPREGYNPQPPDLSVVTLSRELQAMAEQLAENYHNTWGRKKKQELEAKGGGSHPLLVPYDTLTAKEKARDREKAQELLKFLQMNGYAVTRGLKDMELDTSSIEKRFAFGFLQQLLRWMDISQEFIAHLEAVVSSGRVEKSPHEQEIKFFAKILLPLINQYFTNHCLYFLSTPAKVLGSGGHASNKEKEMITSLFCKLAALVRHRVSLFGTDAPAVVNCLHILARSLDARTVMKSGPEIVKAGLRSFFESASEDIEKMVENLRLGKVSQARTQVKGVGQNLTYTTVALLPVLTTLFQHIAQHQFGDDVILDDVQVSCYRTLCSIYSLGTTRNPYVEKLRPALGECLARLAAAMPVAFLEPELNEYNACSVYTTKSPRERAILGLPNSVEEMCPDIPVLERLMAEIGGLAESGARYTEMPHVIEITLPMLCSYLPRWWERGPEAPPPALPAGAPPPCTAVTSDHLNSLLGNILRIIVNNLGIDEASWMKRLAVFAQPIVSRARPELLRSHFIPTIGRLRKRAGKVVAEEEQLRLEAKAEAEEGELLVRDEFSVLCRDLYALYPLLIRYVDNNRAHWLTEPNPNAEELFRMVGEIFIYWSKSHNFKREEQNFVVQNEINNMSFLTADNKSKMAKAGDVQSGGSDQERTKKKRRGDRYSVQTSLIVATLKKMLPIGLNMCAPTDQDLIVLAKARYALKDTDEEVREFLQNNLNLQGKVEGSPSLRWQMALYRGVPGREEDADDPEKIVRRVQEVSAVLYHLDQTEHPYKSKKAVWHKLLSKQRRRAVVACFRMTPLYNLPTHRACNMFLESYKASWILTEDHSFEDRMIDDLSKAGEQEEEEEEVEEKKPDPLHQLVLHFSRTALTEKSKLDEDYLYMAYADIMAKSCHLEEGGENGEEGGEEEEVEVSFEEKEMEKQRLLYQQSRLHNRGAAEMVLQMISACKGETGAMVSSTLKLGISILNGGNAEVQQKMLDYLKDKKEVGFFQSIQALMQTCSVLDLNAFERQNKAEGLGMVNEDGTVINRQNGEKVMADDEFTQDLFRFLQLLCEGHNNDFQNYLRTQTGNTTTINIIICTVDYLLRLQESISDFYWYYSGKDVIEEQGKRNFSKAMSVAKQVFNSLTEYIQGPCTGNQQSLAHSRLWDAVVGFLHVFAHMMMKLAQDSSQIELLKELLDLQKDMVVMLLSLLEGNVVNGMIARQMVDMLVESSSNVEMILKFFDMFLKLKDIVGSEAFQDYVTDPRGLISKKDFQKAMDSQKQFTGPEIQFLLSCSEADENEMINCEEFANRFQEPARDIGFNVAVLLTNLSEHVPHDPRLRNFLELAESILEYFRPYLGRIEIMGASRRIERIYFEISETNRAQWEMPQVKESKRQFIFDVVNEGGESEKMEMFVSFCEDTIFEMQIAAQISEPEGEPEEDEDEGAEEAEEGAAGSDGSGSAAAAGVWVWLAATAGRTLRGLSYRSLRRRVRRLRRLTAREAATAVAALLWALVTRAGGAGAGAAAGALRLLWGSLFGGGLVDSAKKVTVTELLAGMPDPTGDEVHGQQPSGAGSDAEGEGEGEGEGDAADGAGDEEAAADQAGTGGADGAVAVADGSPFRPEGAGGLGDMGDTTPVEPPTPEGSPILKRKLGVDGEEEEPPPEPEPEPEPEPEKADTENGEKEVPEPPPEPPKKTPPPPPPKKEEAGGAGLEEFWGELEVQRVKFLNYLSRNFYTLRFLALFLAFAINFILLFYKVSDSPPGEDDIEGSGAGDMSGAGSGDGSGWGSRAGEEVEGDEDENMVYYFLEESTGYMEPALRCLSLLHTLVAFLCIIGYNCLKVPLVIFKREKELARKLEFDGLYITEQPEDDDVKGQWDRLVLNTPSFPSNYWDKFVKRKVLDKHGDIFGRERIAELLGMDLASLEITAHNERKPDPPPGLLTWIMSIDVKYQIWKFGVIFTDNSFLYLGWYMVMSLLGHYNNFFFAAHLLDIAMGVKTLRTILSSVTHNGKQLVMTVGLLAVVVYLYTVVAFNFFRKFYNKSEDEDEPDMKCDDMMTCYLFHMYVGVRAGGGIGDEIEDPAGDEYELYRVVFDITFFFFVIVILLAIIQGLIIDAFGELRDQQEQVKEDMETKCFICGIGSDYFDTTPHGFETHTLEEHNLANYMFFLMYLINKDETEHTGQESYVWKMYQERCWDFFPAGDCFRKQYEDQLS
Experiment: Selective inhibition of Ryanodine receptor 1 mediated physiological [Ca2+] release (PCR) from sarcoplasmic reticulum against calcium-induced Ca2+ release (CICR)
Type: functional

Structure (SMILES) | Activity
O=C1CN(/N=C/c2ccc(-c3ccc([N+](=O)[O-])cc3)o2)C(=O)N1Cc1cc(I)cc(C2(C(F)(F)F)N=N2)c1 | Active
[N-]=[N+]=Nc1cc(I)cc(CN2C(=O)CN(/N=C/c3ccc(-c4ccc([N+](=O)[O-])cc4)o3)C2=O)c1 | Active
